Experimental data reported in ChEMBL document CHEMBL3885881, “DrugMatrix”.

Species on record: Rattus norvegicus
Experiment: DrugMatrix - Regimen: Daily Repeat
Assay type: toxicity, organism-based, Sprague-Dawley
Parameters: regimen Daily Repeat, gender Male, age 6-8 weeks
Conditions: in vivo, iv, vehicle 100 % SALINE; for ABSOLUTE BASOPHIL / ABSOLUTE EOSINOPHIL / ABSOLUTE LYMPHOCYTE / ABSOLUTE MONOCYTE / ABSOLUTE SEGMENTED NEUTROPHIL / BASOPHIL / EOSINOPHIL / ERYTHROCYTE COUNT / HEMATOCRIT / HEMOGLOBIN / LEUKOCYTE COUNT / LYMPHOCYTE / MEAN CORPUSCULAR HEMOGLOBIN / MEAN CORPUSCULAR HEMOGLOBIN CONCENTRATION / MEAN CORPUSCULAR VOLUME / MONOCYTE / NEUTROPHIL / NUCLEATED RED BLOOD CELLS / PLATELET COUNT: tissue Blood; for ALANINE AMINOTRANSFERASE / ALBUMIN / ALKALINE PHOSPHATASE / ASPARTATE AMINOTRANSFERASE / BLOOD UREA NITROGEN / CARBON DIOXIDE / CHLORIDE / CHOLESTEROL / CREATINE PHOSPHOKINASE / CREATININE / GLUCOSE / LACTATE DEHYDROGENASE / LIPASE / PHOSPHORUS / POTASSIUM / SODIUM / TOTAL BILIRUBIN / TOTAL PROTEIN / URIC ACID: tissue Plasma
[1] = 0.5 mg/kg, 72 h, dose level Low, time 3 day
[2] = 0.5 mg/kg, 120 h, dose level Low, time 5 day
[3] = […], 72 h, dose 2.5 mg/Kg, dose level High, time 3 day
[4] = […], 120 h, dose 2.5 mg/Kg, dose level High, time 5 day

## CC[N+](CC)(CC)CCOc1cccc(OCC[N+](CC)(CC)CC)c1OCC[N+](CC)(CC)CC.[I-].[I-].[I-] [GALLAMINE TRIETHIODIDE]
[1]
  ABSOLUTE BASOPHIL: 0 CELLS/uL
  ABSOLUTE EOSINOPHIL: 0 CELLS/uL
  ABSOLUTE LYMPHOCYTE: 12252.67 CELLS/uL
  ABSOLUTE MONOCYTE: 379 CELLS/uL
  ABSOLUTE SEGMENTED NEUTROPHIL: 1435 CELLS/uL
  BASOPHIL: 0%
  EOSINOPHIL: 0%
  ERYTHROCYTE COUNT: 5.22 x10E6/uL
  HEMATOCRIT: 33.63%
  HEMOGLOBIN: 13.53 G/DL
  LEUKOCYTE COUNT: 14.07 x10E3/uL
  LYMPHOCYTE: 87%
  MEAN CORPUSCULAR HEMOGLOBIN: 25.93 pg
  MEAN CORPUSCULAR HEMOGLOBIN CONCENTRATION: 40.3 G/DL
  MEAN CORPUSCULAR VOLUME: 64.4 fL
  MONOCYTE: 2.67%
  NEUTROPHIL: 10.33%
  NUCLEATED RED BLOOD CELLS: 0.33 /100WBC
  PLATELET COUNT: 1175 x10E3/uL
  ALANINE AMINOTRANSFERASE: 52 u/L
  ALBUMIN: 4.07 G/DL
  ALKALINE PHOSPHATASE: 372 u/L
  ASPARTATE AMINOTRANSFERASE: 79.33 u/L
  BLOOD UREA NITROGEN: 15.33 mg/dL
  CARBON DIOXIDE: 23.33 mmol/L
  CHLORIDE: 104.33 MEQ/L
  CHOLESTEROL: 71.33 mg/dL
  CREATINE PHOSPHOKINASE: 361.33 u/L
  CREATININE: 0.14 mg/dL
  GLUCOSE: 161.67 mg/dL
  LACTATE DEHYDROGENASE: 163 u/L
  LIPASE: 9 u/L
  PHOSPHORUS: 13.97 mg/dL
  POTASSIUM: 6.65 MEQ/L
  SODIUM: 146.57 MEQ/L
  TOTAL BILIRUBIN: 0.2 mg/dL
  TOTAL PROTEIN: 5.67 G/DL
  URIC ACID: 1.4 mg/dL
[2]
  ABSOLUTE BASOPHIL: 0 CELLS/uL
  ABSOLUTE EOSINOPHIL: 43 CELLS/uL
  ABSOLUTE LYMPHOCYTE: 13831.33 CELLS/uL
  ABSOLUTE MONOCYTE: 112.67 CELLS/uL
  ABSOLUTE SEGMENTED NEUTROPHIL: 1346.33 CELLS/uL
  BASOPHIL: 0%
  EOSINOPHIL: 0.33%
  ERYTHROCYTE COUNT: 5.96 x10E6/uL
  HEMATOCRIT: 37.33%
  HEMOGLOBIN: 14.57 G/DL
  LEUKOCYTE COUNT: 15.33 x10E3/uL
  LYMPHOCYTE: 90.33%
  MEAN CORPUSCULAR HEMOGLOBIN: 24.5 pg
  MEAN CORPUSCULAR HEMOGLOBIN CONCENTRATION: 39.03 G/DL
  MEAN CORPUSCULAR VOLUME: 62.7 fL
  MONOCYTE: 0.67%
  NEUTROPHIL: 8.67%
  NUCLEATED RED BLOOD CELLS: 0.33 /100WBC
  PLATELET COUNT: 1517.33 x10E3/uL
  ALANINE AMINOTRANSFERASE: 52.33 u/L
  ALBUMIN: 4.17 G/DL
  ALKALINE PHOSPHATASE: 369.67 u/L
  ASPARTATE AMINOTRANSFERASE: 80.67 u/L
  BLOOD UREA NITROGEN: 15.67 mg/dL
  CARBON DIOXIDE: 22 mmol/L
  CHLORIDE: 104 MEQ/L
  CHOLESTEROL: 61.67 mg/dL
  CREATINE PHOSPHOKINASE: 215 u/L
  CREATININE: 0.26 mg/dL
  GLUCOSE: 161 mg/dL
  LACTATE DEHYDROGENASE: 282 u/L
  LIPASE: 10 u/L
  PHOSPHORUS: 14.53 mg/dL
  POTASSIUM: 7.06 MEQ/L
  SODIUM: 146.97 MEQ/L
  TOTAL BILIRUBIN: 0.2 mg/dL
  TOTAL PROTEIN: 5.93 G/DL
  URIC ACID: 1.57 mg/dL
[3]
  ABSOLUTE BASOPHIL: 0 CELLS/uL
  ABSOLUTE EOSINOPHIL: 0 CELLS/uL
  ABSOLUTE LYMPHOCYTE: 15571.67 CELLS/uL
  ABSOLUTE MONOCYTE: 0 CELLS/uL
  ABSOLUTE SEGMENTED NEUTROPHIL: 1428.33 CELLS/uL
  BASOPHIL: 0%
  EOSINOPHIL: 0%
  ERYTHROCYTE COUNT: 5.32 x10E6/uL
  HEMATOCRIT: 34.57%
  HEMOGLOBIN: 13.83 G/DL
  LEUKOCYTE COUNT: 17 x10E3/uL
  LYMPHOCYTE: 91.67%
  MEAN CORPUSCULAR HEMOGLOBIN: 25.97 pg
  MEAN CORPUSCULAR HEMOGLOBIN CONCENTRATION: 40 G/DL
  MEAN CORPUSCULAR VOLUME: 64.93 fL
  MONOCYTE: 0%
  NEUTROPHIL: 8.33%
  NUCLEATED RED BLOOD CELLS: 1 /100WBC
  PLATELET COUNT: 1293 x10E3/uL
  ALANINE AMINOTRANSFERASE: 50 u/L
  ALBUMIN: 4.23 G/DL
  ALKALINE PHOSPHATASE: 314.67 u/L
  ASPARTATE AMINOTRANSFERASE: 74 u/L
  BLOOD UREA NITROGEN: 15.67 mg/dL
  CARBON DIOXIDE: 22.33 mmol/L
  CHLORIDE: 104.33 MEQ/L
  CHOLESTEROL: 65.67 mg/dL
  CREATINE PHOSPHOKINASE: 204 u/L
  CREATININE: 0.27 mg/dL
  GLUCOSE: 155 mg/dL
  LACTATE DEHYDROGENASE: 158 u/L
  LIPASE: 11.33 u/L
  PHOSPHORUS: 12.97 mg/dL
  POTASSIUM: 6.92 MEQ/L
  SODIUM: 147.33 MEQ/L
  TOTAL BILIRUBIN: 0.17 mg/dL
  TOTAL PROTEIN: 6 G/DL
  URIC ACID: 1.53 mg/dL
[4]
  ABSOLUTE BASOPHIL: 0 CELLS/uL
  ABSOLUTE EOSINOPHIL: 0 CELLS/uL
  ABSOLUTE LYMPHOCYTE: 13793.67 CELLS/uL
  ABSOLUTE MONOCYTE: 142.67 CELLS/uL
  ABSOLUTE SEGMENTED NEUTROPHIL: 830.33 CELLS/uL
  BASOPHIL: 0%
  EOSINOPHIL: 0%
  ERYTHROCYTE COUNT: 5.65 x10E6/uL
  HEMATOCRIT: 35.97%
  HEMOGLOBIN: 14.53 G/DL
  LEUKOCYTE COUNT: 14.77 x10E3/uL
  LYMPHOCYTE: 93.33%
  MEAN CORPUSCULAR HEMOGLOBIN: 25.73 pg
  MEAN CORPUSCULAR HEMOGLOBIN CONCENTRATION: 40.4 G/DL
  MEAN CORPUSCULAR VOLUME: 63.63 fL
  MONOCYTE: 1%
  NEUTROPHIL: 5.67%
  NUCLEATED RED BLOOD CELLS: 0.33 /100WBC
  PLATELET COUNT: 1259.67 x10E3/uL
  ALANINE AMINOTRANSFERASE: 54 u/L
  ALBUMIN: 4.23 G/DL
  ALKALINE PHOSPHATASE: 276.67 u/L
  ASPARTATE AMINOTRANSFERASE: 81.33 u/L
  BLOOD UREA NITROGEN: 15.67 mg/dL
  CARBON DIOXIDE: 21.33 mmol/L
  CHLORIDE: 105 MEQ/L
  CHOLESTEROL: 56.33 mg/dL
  CREATINE PHOSPHOKINASE: 248 u/L
  CREATININE: 0.19 mg/dL
  GLUCOSE: 147 mg/dL
  LACTATE DEHYDROGENASE: 275.33 u/L
  LIPASE: 10 u/L
  PHOSPHORUS: 12.67 mg/dL
  POTASSIUM: 6.58 MEQ/L
  SODIUM: 146.13 MEQ/L
  TOTAL BILIRUBIN: 0.2 mg/dL
  TOTAL PROTEIN: 6.13 G/DL
  URIC ACID: 1.47 mg/dL
